From the supplement of paper PMC13380429
± gives the standard deviation of the averaged measurements.

Assays:
Conditions in all cases: 72 h
Caco-2 [1] = test: cell viability relative to DMSO; higher = less toxic
Vero E6 [2] = test: as above
Calu-3 [3] = test: as above
HepG2 [4] = test: as above
U2OS [5] = test: as above
Caco-2 [6] = test: relative viability EC50 (midpoint between 100% and the lowest measured viability); higher = less toxic
Vero E6 [7] = test: as above
Calu-3 [8] = test: as above
HepG2 [9] = test: as above
U2OS [10] = test: as above
Caco-2 [11] = test: drug sensitivity score (DSS) for viability; higher = more toxic; extreme values may be limits of the assay
Vero E6 [12] = test: as above
Calu-3 [13] = test: as above
HepG2 [14] = test: as above
U2OS [15] = test: as above

SMILES	cell viability (Caco-2 [1]; 1 nM) [%]	cell viability (Caco-2 [1]; 10 nM) [%]	cell viability (Caco-2 [1]; 100 nM) [%]	cell viability (Caco-2 [1]; 1000 nM) [%]	cell viability (Caco-2 [1]; 10000 nM) [%]	cell viability (Vero E6 [2]; 1 nM) [%]	cell viability (Vero E6 [2]; 10 nM) [%]	cell viability (Vero E6 [2]; 100 nM) [%]	cell viability (Vero E6 [2]; 1000 nM) [%]	cell viability (Vero E6 [2]; 10000 nM) [%]	cell viability (Calu-3 [3]; 1 nM) [%]	cell viability (Calu-3 [3]; 10 nM) [%]	cell viability (Calu-3 [3]; 100 nM) [%]	cell viability (Calu-3 [3]; 1000 nM) [%]	cell viability (Calu-3 [3]; 10000 nM) [%]	cell viability (HepG2 [4]; 1 nM) [%]	cell viability (HepG2 [4]; 10 nM) [%]	cell viability (HepG2 [4]; 100 nM) [%]	cell viability (HepG2 [4]; 1000 nM) [%]	cell viability (HepG2 [4]; 10000 nM) [%]	cell viability (U2OS [5]; 1 nM) [%]	cell viability (U2OS [5]; 10 nM) [%]	cell viability (U2OS [5]; 100 nM) [%]	cell viability (U2OS [5]; 1000 nM) [%]	cell viability (U2OS [5]; 10000 nM) [%]	relative viability EC50 (Caco-2 [6]) [µM]	relative viability EC50 (Vero E6 [7]) [µM]	relative viability EC50 (Calu-3 [8]) [µM]	relative viability EC50 (HepG2 [9]) [µM]	relative viability EC50 (U2OS [10]) [µM]	drug sensitivity score (Caco-2 [11])	drug sensitivity score (Vero E6 [12])	drug sensitivity score (Calu-3 [13])	drug sensitivity score (HepG2 [14])	drug sensitivity score (U2OS [15])
O=C1OC(OC(=O)c2cccnc2Nc2cccc(C(F)(F)F)c2)c2ccccc21 (stereo not given) [talniflumate]	95.4	96.9	99.5	102	104	99	97.6	96.8	91	95.3	90.9	100	95	99.1	101	96.3	89.6	104	96.7	104	97.1	101	98.9	102	103	> 10	> 10	> 10	> 10	> 10	0	0	0	0	0
OB1OCc2cc(F)ccc21 [tavaborole]	95.6	87.4	91.7	88.3	97.3	94.6	96	87.7	92	112	101	105	96.4	104	105	92.9	105	103	102	105	99.2	97.3	100	97.2	102	> 10	> 10	> 10	> 10	> 10	0	0	0	0	0
Fc1ccccc1-c1nc2ccn(Cc3ccc(-c4ccc(C(F)(F)F)cc4C(F)(F)F)nn3)cc-2n1 [tegobuvir]	101	97.8	95	99.2	97.1	103	101	100	96.1	98.9	98.2	93.9	104	90.3	104	103	97.3	103	87.6	81.6	101	102	97.2	102	100	> 10	> 10	> 10	> 10	> 10	0	0	0	1.6	0
CC(C)(CO)c1cc2cc(NC(=O)C3(c4ccc5c(c4)OC(F)(F)O5)CC3)c(F)cc2n1C[C@@H](O)CO [tezacaftor]	101	98.1	96.3	89.1	98.8	90.3	98.2	92.4	94.6	93.1	101	96.8	104	104	106	113	102	94.1	97.2	96.3	99.2	96.7	101	97.7	93.2	> 10	> 10	> 10	> 10	> 10	0	0	0	0	0
Cc1ncc(C[n+]2csc(CCOP(=O)(O)OP(=O)(O)O)c2C)c(N)n1 [thiamine-pyrophosphate]	95.4	88.1	106	95.5	104	91.8	101	92.6	96.1	110	98.5	98	104	94	103	95.7	112	97.4	110	134	95.7	95.1	104	95.9	98.2	> 10	> 10	> 10	> 10	> 10	0	0	0	0	0
CC(C)(C)NC[C@H](O)COc1nsnc1N1CCOCC1 [timolol]	98.1	102	97	96.9	113	94.5	96.9	106	99.3	104	99.8	94.5	101	100	98.1	94.9	90	97.1	96.5	94.5	96.6	102	94.4	95.3	96.9	> 10	> 10	> 10	> 10	> 10	0	0	0	0	0
CCC(COC(=O)c1cc(OC)c(OC)c(OC)c1)(c1ccccc1)N(C)C (stereo not given) [trimebutine]	94.5	93.1	95.4	91.3	88.4	98.2	102	98.4	100	98.2	97.5	104	100	95.6	100	99.8	104	103	96.7	96.9	94.8	101	102	97.2	92.6	> 10	> 10	> 10	> 10	> 10	0	0	0	0	0
Cc1c(C)c2c(c(C)c1O)CCC(C)(COc1ccc(CC3SC(=O)NC3=O)cc1)O2 (stereo not given) [troglitazone]	89	116	106	93.4	106	101	92.2	101	95.9	101	112	98.2	110	98.4	108	87.7	103	104	90.6	98.5	95.2	100	95	101	101	> 10	> 10	> 10	> 10	> 10	0	0	0	0	0
COc1cc2c3cc1Oc1cc(ccc1O)C[C@@H]1c4c(cc(OC)c(O)c4Oc4ccc(cc4)C[C@@H]3N(C)CC2)CC[N+]1(C)C [tubocurarine]	93.5	115	102	108	111	108	88.9	107	98.4	118	107	102	103	102	91.3	99.5	94.5	94.6	94.6	97.6	93.5	97.2	98.4	99.9	106	> 10	> 10	> 10	> 10	> 10	0	0	0	0	0
OC(c1ccccc1)(c1ccccc1)C12CC[N+](CCOCc3ccccc3)(CC1)CC2 [umeclidinium]	105	97.1	94.1	104	97.8	97	96.1	92.9	96.2	101	95.1	102	107	101	92.8	96.6	99.5	101	97.1	106	95.8	99.2	98.7	99	99.9	> 10	> 10	> 10	> 10	> 10	0	0	0	0	0
CCCc1nc(C)c2c(=O)nc(-c3cc(S(=O)(=O)N4CCN(CC)CC4)ccc3OCC)[nH]n12 [vardenafil]	95.7	93	101	104	99.9	100	107	102	106	99.6	105	88.8	99.5	96.5	101	98.7	100	96.4	101	89.8	102	98.1	103	99.1	99.5	> 10	> 10	> 10	> 10	> 10	0	0	0	0	0
Nc1ccn([C@H]2CC[C@@H](CO)O2)c(=O)n1 [zalcitabine]	94.2	99.2	90.6	93.5	98.7	102	104	100	99.1	90.9	99.2	91.1	103	101	106	101	93.1	98.3	94.8	98.9	101	105	94.2	97.2	99.1	> 10	> 10	> 10	> 10	> 10	0	0	0	0	0
CC(C)N[C@H]1CCn2c(=O)[nH]c3cccc(c32)[C@@H]1O [zilpaterol]	92.8 ± 2.5	97.75 ± 0.071	100 ± 3.2	96.9 ± 2.5	95.3 ± 9.4	98.1 ± 11	99.5 ± 0.28	94.8 ± 8.6	99 ± 7.4	104 ± 9.6	103 ± 1.5	97.2 ± 10	105 ± 1.1	93 ± 3.9	97.5 ± 0.42	104.9 ± 0.57	105.5 ± 0.78	104 ± 2	95.95 ± 0.071	105 ± 3	100 ± 2.1	99.1 ± 5.2	97.4 ± 3	98.6 ± 8.3	101 ± 3.3	> 10	> 10	> 10	> 10	> 10	0	0	0	0	0
